Source: paper PMC6359675, “Functionalization of the Chalcone Scaffold for the Discovery of Novel Lead Compounds Targeting Fungal Infections” (Molecules, 2019)
Values joined by “and” are separate entries in the source; they are usually repeats but may differ in a detail not shown here. Identical values can stand only once. Like-named read-outs stand apart in the source and are kept apart here.

Legend:
[1] = tested on: C. lusitaniae; experiment: In vitro susceptibility testing, C. lusitaniae clinical isolate; type: cell-based; details: Clavispora lusitaniae
Description: (§1) The yeasts included in the present study were Candida albicans ATCC 10231 (American Type Culture Collection) and a collection of yeasts recovered from a variety of clinical specimens, i.e., blood, urine, genital swabs, bronchoalveolar lavage, nail specimens, collected at the Microbiology Unit, St. Orsola Malpighi University Hospital, Bologna, Italy. The clinical strain isolates were identified by standard procedures, including colony morphology on chromogenic agar (CHROMagar Candida medium, Becton Dickinson, Heidelberg, Germany) and confirmed by MALDI Biotyper System using matrix-assisted laser desorption ionization–time of flight mass spectrometry (MALDI-TOF MS, Bruker Daltonik, GmbH, Germany).
(§2) The in vitro antifungal activity of the chalcones was evaluated by a microdilution broth method in accordance with the guidelines provided by the EUCAST Edef 7.3 [22]. Briefly, all strains were cultured on Sabauraud dextrose, then inocula, prepared at 0.5 McFarland, were diluted 1:20 in RPMI-1640 medium (Gibco®, ThermoFisher Scientific Inc., Waltham, MA, USA), containing glucose 2%, 0.3% levo-glutamine buffered to pH 7.0 with 0.165 M 3-(N-morpholino)propanesulfonic acid (MOPS) to yield 1-5 × 10^5 cells/mL. A total of 100 µL of the yeast suspension was inoculated in a 96-well microplate and incubated with 100 µL of serially 2-fold dilution of the compound in the range 200–6.25 µM. The following controls were included: yeast suspensions incubated in RPMI-1640 culture medium (positive growth control), or supplemented with dilutions of DMSO, or fluconazole (Sigma-Aldrich, St. Louis, MO, USA) as a commercial drug. To check the background turbidity of reagents and the sterility of the procedure, dilutions of each compound were incubated in RPMI-1640 culture medium, without yeast inoculum. The inoculated plate was incubated at 37 °C for 24 h, and subsequently the optical density at 630 nm was measured by the Multiskan Ascent microplate reader (Thermo Fisher Scientific Inc.). The effectiveness of the compounds was expressed as percent inhibition relative to the positive growth control when the inhibition […] the 50% at 100 µM. The IC50 value was determined by interpolation of the dose–response curves generated by plotting the percentages of growth inhibition, relative to the drug-free control (set to 100% of growth), as a function of the tested concentrations (on a logarithm scale). Statistical analysis was carried out by the nonlinear regression method using GraphPad Prism version 5.0 for Windows (GraphPad Software, San Diego, CA, USA). All assays were performed in triplicate and at least two independent experiments were carried out.

[2] = tested on: R. mucilaginosa; experiment: In vitro susceptibility testing, R. mucilaginosa clinical isolate; type: cell-based
Description: as §1, §2

[3] = tested on: C. neoformans; experiment: In vitro susceptibility testing, C. neoformans clinical isolate; type: cell-based; details: Cryptococcus neoformans
Description: as §1, §2

[4] = tested on: C. glabrata; experiment: In vitro susceptibility testing, C. glabrata clinical isolate; type: cell-based; details: Nakaseomyces glabratus
Description: as §1, §2

[5] = tested on: C. utilis; experiment: In vitro susceptibility testing, C. utilis clinical isolate; type: cell-based; details: Williopsis jadinii
Description: as §1, §2

[6] = Cytotoxicity test on Vero cells (WST8/CCK-8 cell viability); type: cell-based, African green monkey; details: African green monkey, Vero cells (ATCC CCL-81), Vero cells, mean and 95% confidence interval
Description: (§3) African green monkey kidney cells (Vero ATCC CCL-81) were cultured in Eagle’s Minimal Essential Medium (MEM) (Sigma-Aldrich), supplemented with 10% fetal bovine serum (FBS) (Carlo Erba Reagents, Milan, Italy), 100 U/mL penicillin, and 100 µg/mL streptomycin at 37 °C with 5% CO2. For experiments, cells were seeded into 96-well plates at 10^4 cells/well, and incubated at 37 °C for 24 h. Following washes with PBS, cell monolayer was incubated with 100 µL of serially 2-fold dilution of the compound in the range 200–6.25 µM. Both untreated cells and cells incubated with medium containing solvent dilutions were included in each experiment as controls.
(§4) The cell viability was assessed by a WST8-based assay according to the manufacturer’s instructions (CCK-8, Cell Counting Kit-8, Dojindo Molecular Technologies, Rockville, MD, USA). After 72 h of incubation, culture medium was removed from each well, the monolayer was washed with PBS, and 100 µL of fresh medium containing 10 µL of CCK-8 solution were added. Following a 2 h at 37 °C, the absorbance was measured at 450/630 nm; data were calculated as the percentage of the cell viability relative to the untreated controls.

[7] = tested on: Vero cells (ATCC CCL-81); experiment: as above; type: cell-based, African green monkey; details: 72 h, up to the highest concentration of 200 μM
Description: as §3, §4

[8] = tested on: C. albicans ATCC 10231; experiment: In vitro susceptibility testing, microdilution broth (EUCAST), C. albicans control strain; type: cell-based, Candida albicans; details: for IC50 / inhibition at 100 µM: Candida albicans; for inhibition at 100 µM: ATCC10231, 24 h
Description: as §2

[9] = tested on: C. krusei; experiment: In vitro susceptibility testing, C. krusei clinical isolate; type: cell-based; details: Pichia kudriavzevii
Description: as §1, §2

[10] = tested on: C. parapsilosis; experiment: In vitro susceptibility testing, C. parapsilosis clinical isolate; type: cell-based; details: Lodderomyces parapsilosis
Description: as §1, §2

[11] = tested on: C. albicans; experiment: In vitro susceptibility testing, C. albicans clinical isolate; type: cell-based; details: Candida albicans
Description: as §1, §2

[12] = tested on: S. clavata; experiment: In vitro susceptibility testing, S. clavata clinical isolate; type: cell-based
Description: as §1, §2

[13] = tested on: C. tropicalis; experiment: In vitro susceptibility testing, C. tropicalis clinical isolate; type: cell-based; details: Candida tropicalis
Description: as §1, §2

[14] = clinical isolate, read-out: IC50 C. lusitaniae
[15] = clinical isolate, read-out: IC50 R. mucilaginosa
[16] = clinical isolate, read-out: IC50 C. neoformans
[17] = clinical isolate, read-out: IC50 C. glabrata
[18] = clinical isolate, read-out: IC50 C. utilis
[19] = ATCC10231, C. albicans ATCC 10231, mean and 95% confidence interval, read-out: IC50
[20] = ATCC10231, C. albicans ATCC 10231, mean and 95% confidence interval, read-out: IC50 [μg/mL]
[21] = clinical isolate, read-out: IC50 C. krusei
[22] = clinical isolate, read-out: IC50 C. parapsilosis
[23] = clinical isolate, mean and 95% confidence interval, read-out: IC50 C. albicans
[24] = clinical isolate, read-out: IC50 S. clavata
[25] = clinical isolate, read-out: IC50 C. tropicalis

Compound	IC50 [1, 14]	IC50 [2, 15]	IC50 [3, 16]	IC50 [4, 17]	IC50 [5, 18]	CC50 at 72 h ([6]; read-out: CC50)	CC50 at 72 h ([6]; read-out: CC50 [μg/mL])	toxicity on Vero cells, in words [7]	IC50 [8, 19]	IC50 [8, 20]	inhibition at 100 µM ([8]; C. albicans ATCC 10231)	IC50 [9, 21]	IC50 [10, 22]	IC50 [11, 23]	IC50 [12, 24]	IC50 [13, 25]	further results
O=C(/C=C/c1ccc(F)cc1)c1cc(Cl)ccc1O [Compound 4, (E)-1-(5-Chloro-2-hydroxyphenyl)-3-(4-fluorophenyl)prop-2-en-1-one]	34.6 µM and 9.6 µg/mL	81.8 µM and 22.6 µg/mL	27.1 µM and 7.5 µg/mL	200 µM and 55.3 µg/mL	96.7 µM and 26.8 µg/mL	> 200 µM	> 55.3 µg/mL	did not display any toxicity	48.9 µM	13.5 µg/mL	65.6 ± 3.3%	200 µM and 55.3 µg/mL	> 200 µM and > 55.3 µg/mL	69.6 µM and 19.3 µg/mL	200 µM and 55.3 µg/mL	200 µM and 55.3 µg/mL	
O=C(/C=C/c1cccc(F)c1)c1cc(Cl)ccc1O [Compound 3, (E)-1-(5-Chloro-2-hydroxyphenyl)-3-(3-fluorophenyl)prop-2-en-1-one]	38.5 µM and 10.7 µg/mL	> 200 µM and > 55.3 µg/mL	35.2 µM and 9.7 µg/mL	> 200 µM and > 55.3 µg/mL	100 µM and 27.7 µg/mL	152 µM	42 µg/mL		57.7 µM	16 µg/mL	64.8 ± 1.5%	> 200 µM and > 55.3 µg/mL	41.5 µM and 11.5 µg/mL	100 µM and 27.7 µg/mL	37.2 µM and 10.3 µg/mL	> 200 µM and > 55.3 µg/mL	
COc1cc(OCCN2CCN(c3ccccc3)CC2)ccc1C(=O)/C=C/c1ccc(F)cc1 [Compound 28, (E)-3-(4-Fluorophenyl)-1-(2-methoxy-4-(2-(4-phenylpiperazin-1-yl)ethoxy)phenyl)prop-2-en-1-one]	26.5 µM and 13.1 µg/mL	48.5 µM and 21.4 µg/mL	17.7 µM and 8.8 µg/mL	37.1 µM and 18.4 µg/mL	29.6 µM and 14.7 µg/mL	> 200 µM	> 99.2 µg/mL	did not display any toxicity	55.9 µM	27.7 µg/mL	99.1 ± 0.7%	63.5 µM and 31.5 µg/mL	36.8 µM and 18.3 µg/mL	48.1 µM and 23.9 µg/mL	27.9 µM and 13.8 µg/mL	26.6 µM and 13.2 µg/mL	IC50 ([1]; Table S1, best-fit, C. lusitaniae, read-out: IC50): 26.5 µM; IC50 ([2]; Table S2, best-fit, R. mucilaginosa, read-out: IC50): 46.2 µM; IC50 ([3]; Table S2, best-fit, C. neoformans, read-out: IC50): 17.7 µM; IC50 ([4]; Table S1, best-fit, C. glabrata, read-out: IC50): 35.9 µM; IC50 ([5]; Table S1, best-fit, C. utilis, read-out: IC50): 29.6 µM; IC50 ([8]; ATCC10231, Table S1, variable slope best-fit, C. albicans ATCC 10231, read-out: IC50): 55.6 µM; IC50 ([9]; Table S1, best-fit, C. krusei, read-out: IC50): 63.6 µM; IC50 ([10]; Table S1, best-fit, C. parapsilosis, read-out: IC50): 31.3 µM; IC50 ([11]; Table S1, best-fit, C. albicans clinical isolate, read-out: IC50): 48.1 µM; IC50 ([12]; Table S2, best-fit, S. clavata, read-out: IC50): 28 µM; IC50 ([13]; Table S1, best-fit, C. tropicalis, read-out: IC50): 26.6 µM
OC(Cn1cncn1)(Cn1cncn1)c1ccc(F)cc1F [FLC, fluconazole, reference compound]	50 nM and 0.015 µg/mL	1.6 mM and 491 µg/mL	256 µM and 78.4 µg/mL	14.4 µM and 4.4 µg/mL	1.56 µM and 0.5 µg/mL				0.25 µM	0.07 µg/mL		64.6 µM and 19.8 µg/mL	37 nM and 0.01 µg/mL	420 nM and 0.13 µg/mL	40 nM and 0.012 µg/mL	0.4 µM	
C#CCOc1ccc(C(=O)/C=C/c2ccncc2)cc1 [Compound 37, (E)-1-(4-(prop-2-yn-1-yloxy)phenyl)-3-(pyridin-4-yl)prop-2-en-1-one]											< 1%						melting point: 99 to 101 °C; antifungal activity against C. albicans growth, in words ([8]; screen at 100 μM, C. albicans ATCC 10231): devoid of any effect
